# Experiments:
# [1] = Stability of dosing solutions of compound of formula (2) stored at 25° C. (Example 11); assay type: physicochemical
# Experimental: A series of dosing solutions of the compound of formula (2) for IV administration was assessed. The selected concentrate of compound of formula (2), prepared at 30 mg/mL in a vehicle of 30% CAPTISOL® at pH 4.0, was evaluated at low, mid, and high concentrations (0.1, 1 and 5 mg/mL, respectively) upon dilution into various dosing solutions. For dilution of the compound of formula (2) to 0.1 and 1 mg/mL, three dosing solutions were evaluated; 1) D5W, 2) D5W with 5 mM K-phosphate (pH=6), and 3) D5W with 20 mM K-phosphate (pH=6). To maintain iso-osmolality for dilutions of the compound of formula (2) to 5 mg/mL, the concentration of dextrose in the dosing solutions was reduced to 2.5% (w/v). Thus, the dosing solutions evaluated were; (1) D2.5W, (2) D2.5W with 5 mM K-phosphate (pH=6), and (3) D2.5W with 20 mM K-phosphate (pH=6).
# The potential dosing solutions were assessed for visual appearance, pH, osmolality, and concentration and purity by HPLC (XBridge Phenyl Column (Waters); UV absorbance detector at 272 nm; mobile phase a step gradient of aqueous acetonitrile containing 0.1% (v/v) formic acid) after approximately 0, 16, 24, and 48 hours of storage at 25° C. […] In addition, the known degradant, the compound of formula (101), formed by release of the active HNO group, was observed after 16 hours at 25° C. in small quantities by HPLC in the dosing solutions containing phosphate buffer. […]
# [2] = tested on: dogs; experiment: 14-day continuous infusion tolerance studies of CXL-1020 in dogs; assay type: in vivo
# Experimental: During in vivo trials of the nitroxyl donor CXL-1020 (N-hydroxy-2-methanesulfonylbenzene-1-sulfonamide), a 14-day study was conducted to evaluate tolerance in dogs treated with continuous infusions of CXL-1020 at dose rates of up to 90 μg/kg/min.
# To further investigate this undesirable side-effect, a follow-up 14-day study in dogs was initiated.
SMILES,osmolality ([1]; 1 mg/mL in D5W with 20 mM phosphate),"visual appearance ([1]; 5 mg/mL in D2.5W with 5 mM phosphate (pH 6.0), after 48 hours at 25° C.)","dose rate tolerated ([2]; 14-day continuous infusion, dogs) [µg/kg/min]","side effects in follow-up 14-day study ([2]; dog, in vivo)"
"CS(=O)(=O)c1cccc(S(=O)(=O)NO)c1 [Compound 2, N-Hydroxy-3-methanesulfonylbenzene-1-sulfonamide]",approximately 350 mOsm/kg,"clear, light yellow",–,–
"CS(=O)(=O)c1ccccc1S(=O)(=O)NO [CXL-1020, N-hydroxy-2-methanesulfonylbenzene-1-sulfonamide, reference compound]",–,–,60,significant swelling and inflammation in the dogs' hind limbs
